Patent US8889671B2, “Compounds and methods for treating bacterial infections” (AstraZeneca AB, priority 2013, dated 2014)
Converted amounts (≈) assume the structure as drawn. “And” between values parts separate entries of the source, which are not always exact repeats. Identical values can stand only once. Like-named read-outs stand apart in the source and are kept apart here.

Assays:
Staphylococcus aureus [1] = assay: In vitro antibacterial activity of Example 5 (MIC); assay type: cell-based
Clostridium difficile = assay: In vitro antibacterial activity of Example 5 against anaerobes (MIC, agar dilution); assay type: cell-based; details: Clostridioides difficile
Enterococcus faecium = assay: In vitro antibacterial activity of Example 5 (MIC); assay type: cell-based
Escherichia coli = assay: In vitro antibacterial activity of Example 5 (MIC); assay type: cell-based
Enterobacter cloacae = assay: In vitro antibacterial activity of Example 5 (MIC); assay type: cell-based
Enterobacter aerogenes = assay: In vitro antibacterial activity of Example 5 (MIC); assay type: cell-based; details: Klebsiella aerogenes
Neisseria gonorrhoeae = assay: In vitro antibacterial activity of Example 5 (MIC, agar dilution); assay type: cell-based; details: 17 strains of Neisseria gonorrhoeae
Burkholderia cepacia = assay: In vitro antibacterial activity of Example 5 (MIC); assay type: cell-based
[2] = system: Staphylococcus lugdunensis; assay: In vitro antibacterial activity of Example 5 (MIC); assay type: cell-based
Staphylococcus aureus [3] = assay: Modal MIC against S. aureus isolates of the thigh model; assay type: cell-based
Method: The S. aureus strains used included a methicillin-resistant isolate obtained from the American Type Culture Collection (ATCC33591) (MRSA). In addition, three S. aureus clinical isolates were utilized; (1) a methicillin sensitive isolate (MSSA); (2) a recent methicillin-resistant clinical isolate of the USA300 genotype (USA300) and (3) a recent methicillin-resistant clinical isolate of the USA100 genotype ([…]).
The MIC against each isolate was determined using the broth microdilution method following CLSI guidelines (Rayner et al. Clinical pharmacodynamics of linezolid in seriously ill patients treated in a compassionate use program. Clin Pharmacokinet 2003. 42:1411-23). Ten individual determinations were performed for each strain and the Modal MIC was used for all PK/PD calculations.

[4] = system: Streptococcus pyogenes ATCC12384; assay: Modal MIC against S. pyogenes ATCC12384; assay type: cell-based
Method: The MIC against S. pyogenes ATCC12384 was determined using the broth microdilution method following CLSI guidelines. Three individual determinations were performed for each strain and the Modal MIC was used for all PK/PD calculations. All animal experiments were performed under UK Home Office Licensure with local ethical committee clearance. All experiments were performed by technicians who have completed parts 1, 2 and 3 of the Home Office Personal License course and hold current personal licenses.

Citrobacter freundii = assay: In vitro antibacterial activity of Example 5 (MIC); assay type: cell-based
Citrobacter koseri = assay: In vitro antibacterial activity of Example 5 (MIC); assay type: cell-based
Staphylococcus aureus [5] = assay: Emergence of resistance with serial passage; assay type: cell-based; details: after twenty passages with Example 5, S. aureus isolates (516 and 2398)
Streptococcus pyogenes = assay: In vitro antibacterial activity of Example 5 (MIC); assay type: cell-based; details: for MIC: Streptococcus pyogenes (isolates not further specified)
[6] = Plasma pharmacokinetics in S. pyogenes infected mice; assay type: in vivo; details: mouse, ip, with ABT
Method: Groups of satellite mice infected with S. pyogenes, as described above, were used for determining plasma concentrations. Dosing started 2 hours after infection and whole blood samples were taken at 0.5, 1, 2, 4, 6, 8, 12 and 24 h. Mice from the satellite PK study were euthanized by inhaled 5% isofluorane at specified time points post-treatment, mice were bled immediately by cardiac puncture. Heparinised blood samples were separated by centrifugation for five minutes at 13200 rpm. Plasma samples were stored at minus 80° C. before transfer to the client for analysis.
For the PK arm of the study, 3 mice per time point per unit dose were used. Due to unintended changes in the final work order, the 80 and 160 mg/kg dosing groups initially were administered Example 5 without prior treatment with aminobenzotriazole. Once this was realised, the remaining mice were re-distributed across the dosing groups and group size was reduced to two mice per time point.
Biological samples containing Example 5 were extracted using protein precipitation. To one volume of sample, 5 volumes of acetonitrile containing the internal standard (Glyburide) were added. The mixture was then mixed and the plate was centrifuged at 3200 rpm for 5 min. A 200 μL volume of the supernatant was dried down and, reconstituted in mobile phase and the mixture was injected onto liquid chromatography-mass spectrometry (LC-MS). A Sciex API 4000, controlled by Analyst v1.4.2, was used for the acquisition of the data and the quantification of Example 5.
The plasma profile for each dose group was obtained by calculating the average plasma concentration of compound in each of the two to three animals per time point. The area under the plasma concentration time curve from zero to infinity (AUC); maximum plasma drug concentration (Cmax); time to reach maximum concentration (tmax); and plasma half-life (t1/2) for each dose group was determined by non-compartmental analysis (WinNonLin 5.2, Pharsight). The non-compartmental Model 200 was used in the analysis.

Klebsiella pneumoniae = assay: In vitro antibacterial activity of Example 5 (MIC); assay type: cell-based

Compound: C[C@@H]1CN2c3c(cc4c(N5C(=O)OC[C@@H]5C)noc4c3F)CC3(C(=O)NC(=O)NC3=O)[C@H]2[C@H](C)O1 [Example 5, (2R,4S,4aS)-11-Fluoro-2,4-dimethyl-8-[(4S)-4-methyl-2-oxo-1,3-oxazolidin-3-yl]-1,2,4,4a-tetrahydro-2′H,6H-spiro[1,4-oxazino[4,3-a][1,2]oxazolo[4,5-g]quinoline-5,5′-pyrimidine]-2′,4′,6′(1′H,3′H)-trione]
- MIC90 (Staphylococcus aureus [1]; 100 strains of S. aureus): 0.25 µg/mL (≈ 0.513 µM)
- MIC (Staphylococcus aureus [1]; ATCC29213, Staphylococcus aureus (ATCC 29213, CLSI QC Strain)): 0.125 µg/mL (≈ 0.256 µM)
- MIC (Staphylococcus aureus [1]; ATCC29213, Staphylococcus aureus + 2%Human albumin (ATCC 29213, CLSI QC Strain)): 0.25 µg/mL
- MIC (Staphylococcus aureus [1]; MRSA / USA100, Staphylococcus aureus (MRSA, USA100)): 0.125 µg/mL (≈ 0.256 µM)
- MIC (Staphylococcus aureus [1]; MRSA, Staphylococcus aureus (MRSA)): 0.5 µg/mL (≈ 1.03 µM)
- MIC (Staphylococcus aureus [1]; MRSA, Staphylococcus aureus (MRSA, fluoroquinolone-R)): 0.25 µg/mL (≈ 0.513 µM)
- MIC (Staphylococcus aureus [1]; MSSA, Staphylococcus aureus (MSSA, in vivo strain)): 0.125 µg/mL (≈ 0.256 µM)
- MIC (Staphylococcus aureus [1]; Staphylococcus aureus (In vivo Strain)): 0.25 µg/mL (≈ 0.513 µM)
- MIC (Staphylococcus aureus [1]; VISA, Staphylococcus aureus (Mu3, VISA)): 0.25 µg/mL (≈ 0.513 µM)
- MIC (Clostridium difficile; ATCC70057, Clostridium difficile (ATCC 70057, CLSI QC Strain)): 0.125 µg/mL (≈ 0.256 µM)
- MIC (Clostridium difficile; Clostridium difficile): 0.125 µg/mL (≈ 0.256 µM)
- MIC (Enterococcus faecium): 16 µg/mL (≈ 32.8 µM)
- MIC90 (Enterococcus faecium; E. faecium): 16 µg/mL (≈ 32.8 µM)
- MIC (Enterococcus faecium; Enterococcus faecium (Vancomycin-R, fluoroquinolone-R)): 8 µg/mL (≈ 16.4 µM)
- MIC (Escherichia coli; ATCC25922, Escherichia coli (ATCC 25922 CLSI QC Strain)): 2 µg/mL (≈ 4.1 µM)
- MIC (Escherichia coli; ATCC25922, Escherichia coli (TolC- of ATCC 25922)): < 0.06 µg/mL
- MIC (Escherichia coli; ATCC25922, Escherichia coli + 2%Human albumin (ATCC 25922)): < 0.06 µg/mL
- MIC (Escherichia coli; ATCC35218, Escherichia coli (ATCC 35218 CLSI QC Strain)): 4 µg/mL (≈ 8.21 µM)
- MIC (Escherichia coli; Escherichia coli (K12(W3110))): 2 µg/mL (≈ 4.1 µM)
- MIC (Enterobacter cloacae; Enterobacter cloacae (Chromosomal AmpC)): 32 µg/mL (≈ 65.6 µM)
- MIC (Enterobacter cloacae; Enterobacter cloacae, read-out: MIC): 32 µg/mL (≈ 65.6 µM)
- MIC (Enterobacter aerogenes): 64 µg/mL (≈ 131 µM)
- MIC90 (Neisseria gonorrhoeae): 0.125 µg/mL (≈ 0.256 µM)
- MIC range (Neisseria gonorrhoeae): 0.03 to 0.25 µg/mL
- MIC (Burkholderia cepacia): 64 µg/mL (≈ 131 µM)
- MIC [2]: 1 µg/mL (≈ 2.05 µM)
- MIC90 ([2]; S. lugdunensis, n=11): 0.5 µg/mL (≈ 1.03 µM)
- MIC (Staphylococcus aureus [3]; ATCC 33591 / MRSA, S. aureus MRSA (ATCC33591)): 0.125 µg/mL (≈ 0.256 µM)
- MIC (Staphylococcus aureus [3]; S. aureus MSSA clinical isolate): 0.0625 µg/mL (≈ 0.128 µM)
- MIC (Staphylococcus aureus [3]; S. aureus USA100 clinical isolate): 0.125 µg/mL (≈ 0.256 µM)
- MIC (Staphylococcus aureus [3]; S. aureus USA300 clinical isolate): 0.25 µg/mL (≈ 0.513 µM)
- MIC [4]: 0.125 µg/mL (≈ 0.256 µM)
- MIC (Citrobacter freundii): 16 µg/mL (≈ 32.8 µM)
- MIC (Citrobacter koseri): 64 µg/mL (≈ 131 µM)
- decrease in susceptibility over the starting culture (Staphylococcus aureus [5]): 32 fold and 16 fold
- MIC (Streptococcus pyogenes): 0.25 µg/mL (≈ 0.513 µM)
- MIC (Streptococcus pyogenes; Streptococcus pyogenes, read-out: MIC): 0.125 µg/mL (≈ 0.256 µM)
- MIC90 (Streptococcus pyogenes; Streptococcus pyogenes, 100 strains of S. pyogenes): 0.25 µg/mL (≈ 0.513 µM)
- MIC50 (Streptococcus pyogenes; Streptococcus pyogenes, 100 strains of S. pyogenes, read-out: MIC50 (MICH [sic])): 0.125 µg/mL (≈ 0.256 µM)
- AUC(0-inf) ([6]; nominal dose 10 mg/kg (measured 4.1)): 32.6 µg·h/mL
- AUC(0-inf) ([6]; nominal dose 40 mg/kg (measured 25.4)): 109 µg·h/mL
- AUC(0-inf) ([6]; nominal dose 60 mg/kg (measured 44.2)): 153 µg·h/mL
- AUC(0-inf) ([6]; nominal dose 80 mg/kg (measured 66.2)): 251 µg·h/mL
- AUC(0-inf) ([6]; nominal dose 160 mg/kg (measured 142.0)): 614 µg·h/mL
- MIC (Klebsiella pneumoniae; ATCC700603, Klebsiella pneumoniae (ATCC 700603 CLSI QC Strain)): > 64 µg/mL
- MIC (Klebsiella pneumoniae; Klebsiella pneumoniae (In vivo strain)): 16 µg/mL (≈ 32.8 µM)
- MIC (Klebsiella pneumoniae; Klebsiella pneumoniae (isolates not further specified)): 64 µg/mL (≈ 131 µM)
